In patent publication US20160083357A1, “NOVEL TETRAZOLONE DERIVATIVES” (Hoffmann-La Roche Inc., priority 2013, published 2016):
Like-named read-outs stand apart in the source and are kept apart here.

Assays:
human CB2 receptors = target: T1, human CB2 receptors (Homo sapiens, UniProt P34972); assay: cAMP assay, human CB2; assay type: cell-based
T1 construct: expressed in transfected cells; host or cells: CHO cells
Outline: (§1)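 CHO cells expressing human CB1 or CB2, preincubated in Krebs Ringer bicarbonate with 1 mM IBMX, then compound for 30 min at 30° C. cAMP quantified by time-resolved FRET (cAMP-Nano-TRF) against a cAMP standard curve; EC50 values derived.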

human CB1 receptors = target: T2, human CB1 receptors (Homo sapiens, UniProt P21554); assay: cAMP assay, human CB1; assay type: cell-based
T2 construct: expressed in transfected cells; host or cells: CHO cells
T2 sequence (P21554 whole entry): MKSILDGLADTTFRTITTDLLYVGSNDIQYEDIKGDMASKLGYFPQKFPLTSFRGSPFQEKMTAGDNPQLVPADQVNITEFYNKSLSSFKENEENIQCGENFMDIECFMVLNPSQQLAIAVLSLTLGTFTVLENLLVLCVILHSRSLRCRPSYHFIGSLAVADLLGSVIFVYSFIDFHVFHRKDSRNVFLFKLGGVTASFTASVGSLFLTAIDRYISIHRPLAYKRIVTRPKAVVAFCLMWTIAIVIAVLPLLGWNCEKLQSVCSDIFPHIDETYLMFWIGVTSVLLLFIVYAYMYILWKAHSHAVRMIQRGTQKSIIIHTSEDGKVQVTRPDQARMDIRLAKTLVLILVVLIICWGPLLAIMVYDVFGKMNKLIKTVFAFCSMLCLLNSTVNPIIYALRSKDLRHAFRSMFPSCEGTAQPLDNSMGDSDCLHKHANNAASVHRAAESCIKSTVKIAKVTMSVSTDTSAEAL
Outline: as §1

[1] = functional cAMP assay, CHO cells expressing human CB2, read-out: Ec50: CB2 - hu cAMP
[2] = functional cAMP assay, CHO cells expressing human CB1, read-out: Ec50: CB1 - hu cAMP

T1 sequence (P34972 whole entry): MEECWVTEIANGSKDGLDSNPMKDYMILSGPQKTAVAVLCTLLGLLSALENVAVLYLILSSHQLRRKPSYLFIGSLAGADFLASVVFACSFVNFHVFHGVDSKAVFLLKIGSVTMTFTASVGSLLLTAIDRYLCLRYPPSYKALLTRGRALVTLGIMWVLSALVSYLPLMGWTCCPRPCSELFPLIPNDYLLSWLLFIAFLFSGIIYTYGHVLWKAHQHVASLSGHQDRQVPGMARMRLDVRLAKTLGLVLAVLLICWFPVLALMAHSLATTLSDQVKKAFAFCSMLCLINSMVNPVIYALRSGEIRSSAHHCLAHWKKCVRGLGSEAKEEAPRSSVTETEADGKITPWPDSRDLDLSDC

SMILES | EC50 (human CB2 receptors; [1]) | EC50 (human CB1 receptors; [2]) | EC50 (human CB2 receptors) | EC50 (human CB1 receptors)
O=C(N1CCC2(CCOC2)CC1)n1nnn(-c2cccc(F)c2)c1=O [Example 64, 1-(3-Fluoro-phenyl)-4-(2-oxa-8-aza-spiro[4.5]decane-8-carbonyl)-1,4-dihydro-tetrazol-5-one] | 2.5 nM | > 10000 nM |  | 
O=C(CN1CCN(C(=O)n2nnn(-c3cccc(F)c3)c2=O)CC1)N1CCCC1 [Example 27, 1-(3-Fluoro-phenyl)-4-[4-(2-oxo-2-pyrrolidin-1-yl-ethyl)-piperazine-1-carbonyl]-1,4-dihydro-tetrazol-5-one] | 7.1 nM | > 10000 nM |  | 
COCCN(C(=O)n1nnn(-c2ccc(Cl)cc2)c1=O)C(C)C [Example 85, 4-(4-Chloro-phenyl)-5-oxo-4,5-dihydro-tetrazole-1-carboxylic acid isopropyl-(2-methoxy-ethyl)-amide] |  |  | 7.9 nM | > 10000 nM
CC1(C)CCN(C(=O)n2nnn(-c3ccc(Cl)cc3)c2=O)CC1 [Example 79, 1-(4-Chloro-phenyl)-4-(4,4-dimethyl-piperidine-1-carbonyl)-1,4-dihydro-tetrazol-5-one] | 0.9 nM | > 10000 nM |  | 
CCOCCN(C)C(=O)n1nnn(-c2ccc(Cl)cc2)c1=O [Example 113, 4-(4-Chloro-phenyl)-5-oxo-4,5-dihydro-tetrazole-1-carboxylic acid (2-ethoxy-ethyl)-methyl-amide] | 1.4 nM | > 10000 nM |  | 

More lines, in order of falling EC50 (human CB2 receptors; [1]), values ahead:

EC50 (human CB2 receptors; [1]) | EC50 (human CB1 receptors; [2]) | SMILES | EC50 (human CB2 receptors) | EC50 (human CB1 receptors)
3000 nM | > 10000 nM | CC(C)(C)OC(=O)N1CCC(n2nnn(-c3cccc(F)c3)c2=O)CC1 [Example 15, 4-[4-(3-Fluoro-phenyl)-5-oxo-4,5-dihydro-tetrazol-1-yl]-piperidine-1-carboxylic acid tert-butyl ester] |  | 
154 nM | > 10000 nM | N#C[C@@H]1CCCN1C(=O)n1nnn(-c2cccc(F)c2)c1=O [Example 51, (S)-1-[4-(3-Fluoro-phenyl)-5-oxo-4,5-dihydro-tetrazole-1-carbonyl]-pyrrolidine-2-carbonitrile] |  | 
9.7 nM | > 10000 nM | Cc1cc(C2CCCN2C(=O)n2nnn(-c3cccc(Cl)c3)c2=O)on1 (stereo not shown) [Example 74, 1-(3-Chloro-phenyl)-4-[2-(3-methyl-isoxazol-5-yl)-pyrrolidine-1-carbonyl]-1,4-dihydro-tetrazol-5-one] |  | 
7 nM | > 10000 nM | O=C(N1CCOCC1)n1nnn(-c2cccc(Br)c2)c1=O [Example 135, 1-(3-bromophenyl)-4-(morpholine-4-carbonyl)tetrazol-5-one] |  | 
4.5 nM | > 10000 nM | O=C(N1CCOCC1)n1nnn(-c2ccc(Cl)cc2)c1=O [Example 103, 1-(4-Chloro-phenyl)-4-(morpholine-4-carbonyl)-1,4-dihydro-tetrazol-5-one] |  | 
1.3 nM | > 10000 nM | COCCN(C)C(=O)n1nnn(-c2cccc(F)c2)c1=O [Example 54, 4-(3-Fluoro-phenyl)-5-oxo-4,5-dihydro-tetrazole-1-carboxylic acid (2-methoxy-ethyl)-methyl-amide] |  | 
